Experimental data reported in ChEMBL document CHEMBL1250452, “Bradykinin B1 receptor antagonists as potential therapeutic agents for pain” (J Med Chem, 2010).

Tests used:
Rattus norvegicus = experiment: Antiinflammatory activity in rat assessed as reversal of carrageenan-induced hyperalgesia at 3 mg/kg, ip; type: functional; conditions: route intraperitoneal
[1] = Half life in Sprague-Dawley rat at 2 mg/kg, iv; type: ADME, organism-based; set-up: dose 2 mg/kg, route intravenous; conditions: in vivo
B1 bradykinin receptor [2] = biological target: T1, B1 bradykinin receptor (Oryctolagus cuniculus, UniProt P48748); experiment: Inhibition of rabbit bradykinin B1 receptor
T1 sequence (P48748 whole entry): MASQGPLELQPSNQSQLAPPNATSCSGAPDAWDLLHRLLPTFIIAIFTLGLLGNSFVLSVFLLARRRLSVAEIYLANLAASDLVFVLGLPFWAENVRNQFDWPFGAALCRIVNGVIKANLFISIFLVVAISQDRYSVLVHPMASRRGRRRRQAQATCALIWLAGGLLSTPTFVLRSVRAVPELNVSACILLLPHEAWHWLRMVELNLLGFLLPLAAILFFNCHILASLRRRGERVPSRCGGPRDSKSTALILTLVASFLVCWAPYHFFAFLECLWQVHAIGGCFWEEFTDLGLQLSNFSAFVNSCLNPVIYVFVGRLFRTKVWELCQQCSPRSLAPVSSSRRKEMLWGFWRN

B1 bradykinin receptor [3] = biological target: T2, B1 bradykinin receptor (Rattus norvegicus, UniProt P97583); experiment: Inhibition of rat bradykinin B1 receptor
T2 sequence (P97583 whole entry): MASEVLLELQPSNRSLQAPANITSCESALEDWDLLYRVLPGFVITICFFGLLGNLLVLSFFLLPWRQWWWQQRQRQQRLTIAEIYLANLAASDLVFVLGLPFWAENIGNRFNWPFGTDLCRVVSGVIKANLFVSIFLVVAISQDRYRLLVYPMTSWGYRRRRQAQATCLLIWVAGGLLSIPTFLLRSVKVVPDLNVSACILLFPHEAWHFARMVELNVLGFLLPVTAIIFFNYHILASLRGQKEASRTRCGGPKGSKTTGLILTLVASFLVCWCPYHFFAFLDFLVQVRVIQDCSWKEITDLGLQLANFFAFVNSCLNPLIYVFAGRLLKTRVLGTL

B1 bradykinin receptor [4] = biological target: T3, B1 bradykinin receptor (Canis lupus familiaris, UniProt Q9BDQ5); experiment: Antagonist activity at dog bradykinin B1 receptor; type: functional
T3 sequence (Q9BDQ5 whole entry): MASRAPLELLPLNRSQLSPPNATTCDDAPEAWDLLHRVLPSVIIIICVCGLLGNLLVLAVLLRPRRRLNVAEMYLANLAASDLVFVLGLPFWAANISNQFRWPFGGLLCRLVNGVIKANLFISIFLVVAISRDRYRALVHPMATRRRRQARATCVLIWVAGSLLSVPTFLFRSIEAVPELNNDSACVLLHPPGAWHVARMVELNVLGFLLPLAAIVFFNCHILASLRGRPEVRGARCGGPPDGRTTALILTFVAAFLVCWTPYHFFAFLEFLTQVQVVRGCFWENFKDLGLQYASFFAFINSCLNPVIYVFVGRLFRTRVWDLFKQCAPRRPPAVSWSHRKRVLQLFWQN

[5] = Half life in Sprague-Dawley rat at 0.7 mg/kg, iv; type: ADME, organism-based; set-up: dose 0.7 mg/kg, route intravenous; conditions: in vivo
[6] = Oral bioavailability in Sprague-Dawley rat at 7 mg/kg; type: ADME, organism-based; conditions: in vivo
B1 bradykinin receptor [7] = biological target: T4, B1 bradykinin receptor (Macaca mulatta, UniProt Q8HZP2); experiment: Binding affinity to monkey bradykinin B1 receptor
T4 sequence (Q8HZP2 whole entry): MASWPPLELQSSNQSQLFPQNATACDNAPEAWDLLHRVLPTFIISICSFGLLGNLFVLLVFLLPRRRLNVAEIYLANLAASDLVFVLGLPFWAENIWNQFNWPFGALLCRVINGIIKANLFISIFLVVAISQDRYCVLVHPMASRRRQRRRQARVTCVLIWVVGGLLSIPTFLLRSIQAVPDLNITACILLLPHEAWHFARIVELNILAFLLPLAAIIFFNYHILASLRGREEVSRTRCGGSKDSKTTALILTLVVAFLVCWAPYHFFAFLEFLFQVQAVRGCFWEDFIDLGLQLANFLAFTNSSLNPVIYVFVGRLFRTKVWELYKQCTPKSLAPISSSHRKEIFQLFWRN

B1 bradykinin receptor [8] = biological target: T5, B1 bradykinin receptor (Homo sapiens, UniProt P46663); experiment: Antagonist activity at human bradykinin B1 receptor in human MR5 cells assessed as [3H]inositol phosphate accumulation; type: functional, cell-based
T5 sequence (P46663 whole entry): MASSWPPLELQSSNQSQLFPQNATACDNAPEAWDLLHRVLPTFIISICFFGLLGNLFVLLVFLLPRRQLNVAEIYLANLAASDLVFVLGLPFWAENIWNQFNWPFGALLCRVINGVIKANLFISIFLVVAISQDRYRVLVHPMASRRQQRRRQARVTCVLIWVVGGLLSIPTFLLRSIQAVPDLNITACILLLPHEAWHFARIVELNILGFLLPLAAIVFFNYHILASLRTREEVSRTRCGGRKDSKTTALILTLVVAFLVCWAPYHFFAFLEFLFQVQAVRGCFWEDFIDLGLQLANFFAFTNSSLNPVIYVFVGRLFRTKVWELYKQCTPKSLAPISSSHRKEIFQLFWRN

SMILES: CCCN1C(=O)[C@H](NC(=O)Nc2ccc(N3CCN(c4ccncc4)CC3)cc2)N=C(CCc2ccccc2)c2ccccc21
- Activity (Rattus norvegicus): 89%
- half-life [1]: 2.7 h

SMILES: O=C(C[C@@H]1C(=O)Nc2ccccc2N1S(=O)(=O)c1ccc(Cl)c(Cl)c1)NCCc1ccc(C2=NCCN2)cc1
- IC50 (B1 bradykinin receptor [2]): 0.26 nM
- IC50 (B1 bradykinin receptor [3]): 163 nM
- IC50 (B1 bradykinin receptor [4]): 16.3 nM

SMILES: CN1CCN(C(=O)C2CCN(S(=O)(=O)c3ccc(NCC(c4ccccc4)c4ccccc4)c(C(=O)N4CCOCC4)c3)CC2)CC1
- half-life [5]: 2.7 h
- bioavailability [6]: 42%
- Ki (B1 bradykinin receptor [7]): 7.7 nM

SMILES: O=C(Nc1[nH]nc(C(=O)NCCC2CCN(c3ccncc3)CC2)c1Br)c1ccccc1Cl
- IC50 (B1 bradykinin receptor [8]): 3.5 nM

SMILES: O=C(Nc1ccc(S(=O)(=O)Nc2ccccc2C(=O)c2ccccc2)cc1)OCC1CCCO1 (configuration not stated)
- half-life [1]: 9.7 h

SMILES: CC(=O)Nc1ccc(S(=O)(=O)Nc2ccccc2C(=O)c2ccccc2)cc1
- half-life [1]: 0.3 h

SMILES: O=C(NCCCN1CCCCC1)Nc1ccc(S(=O)(=O)Nc2ccccc2C(=O)c2ccccc2)cc1
- half-life [1]: 14 h
